pIC50: −log10 of the molar value. Like-named read-outs stand apart in the source and are kept apart here. Values belong to the compound of their own block, whether it stands above or below them.
What was measured:
CALR mutant cell lines = test: cells; conditions: for pIC50: read-out: IC50 in mutant cell lines
Protocol: (§1) Ba/F3 and UT-7-TPO were plated 5.000 cells/well and 16.000 cells/well into 96-well plates with the desirable concentrations of compounds or cytokines added to a total volume of 100 ul. 72 hours later, the CellTiter-Glo luminescent Cell Viability Assay (Promega) was used to determine the cell viability. The luminescent signal was detected by a VICTOR Multilabel Plate Reader (PerkinElmer). Dose response data was analyzed by Graphpad Prism 7.0.
(§2) To further explore the chemical space of the compound, a few hematoxylin analogues were also tested (FIGS. 15 to 17). […] The compounds Protosappanin B (A-4) and RJ002 (B-2) were also tested. […] As a comparison, the clinically used chemotherapeutic drugs hydroxyurea and ruxolitinib were also tested in the cell models.

[1] = solubility in 10 mM stock solution; assay type: physicochemical; conditions: compounds dissolved in DMSO
Protocol: All tested compounds were dissolved in DMSO.
(§3) These included HEM8 (B-18), HEM11 (B-19), HEM30 (B-20), HEM36 (B-26), HEM44 (B-34) and HEM46 (B-36) which were used at 1/10 of the concentration (1 uM for Ba/F3 and 3 uM for UT-7).

Ba/F3 cells = test: cytotoxicity screen of further hematoxylin derivatives; assay type: cell-based, mouse; conditions: 10 uM (1 uM for compounds insoluble in 10 mM stock)
Protocol: (§4) Cytotoxicity screens were performed essentially as described in Example 1.
as §3

UT-7 cells = test: as above; assay type: cell-based; conditions: 30 uM (3 uM for compounds insoluble in 10 mM stock)
Protocol: as §4, §3

[2] = tested on: WT cell line (UT-7 cells); test: IC50 of further hematoxylin derivatives (Table 3); assay type: cell-based; conditions: Homo sapiens
Protocol: as §4

[3] = tested on: mutant cell line (UT-7 cells); test: IC50 of further hematoxylin derivatives (Table 3); assay type: cell-based; conditions: Homo sapiens
Protocol: as §4

CALR wild-type cell line = test: 72 h dose response of hematoxylin, analogues and control compounds; assay type: cell-based; conditions: 72 h assay
Protocol: as §1, §2

[4] = UT7, UT-7 cells, read-out: IC50 WT cell line
[5] = UT7, UT-7 cells, read-out: IC50 mutant cell line

pIC50 (CALR mutant cell lines; 72 h assay): 5.12
Compound: Hematein [Hematein (A-3)]
cytotoxic selectivity for mutant vs wild-type cell lines (CALR mutant cell lines): retained the cytotoxic selectivity

solubility in a 10 mM stock solution [1]: insoluble in a 10 mM stock solution
Compound: O=C(Oc1cc2c(cc1OC(=O)c1cccc(N3C(=O)/C(=C/c4cccc(F)c4)SC3=S)c1)[C@@H]1c3ccc(OC(=O)c4cccc(N5C(=O)/C(=C/c6cccc(F)c6)SC5=S)c4)c(OC(=O)c4cccc(N5C(=O)/C(=C/c6cccc(F)c6)SC5=S)c4)c3OC[C@]1(O)C2)c1cccc(N2C(=O)/C(=C/c3cccc(F)c3)SC2=S)c1 [HEM8 (B-18)]

solubility in a 10 mM stock solution [1]: insoluble in a 10 mM stock solution
Compound: O=C(Oc1cc2c(cc1OC(=O)c1ccc(/C=C3\SC(=S)N(c4ccc(F)cc4)C3=O)cc1)[C@@H]1c3ccc(OC(=O)c4ccc(/C=C5\SC(=S)N(c6ccc(F)cc6)C5=O)cc4)c(OC(=O)c4ccc(/C=C5\SC(=S)N(c6ccc(F)cc6)C5=O)cc4)c3OC[C@]1(O)C2)c1ccc(/C=C2\SC(=S)N(c3ccc(F)cc3)C2=O)cc1 [HEM30 (B-20)]
selectivity and potency in cytotoxicity screen (Ba/F3 cells): Best results in terms of selectivity and potency

solubility in a 10 mM stock solution [1]: insoluble in a 10 mM stock solution
Compound: O=C(Oc1cc2c(cc1OC(=O)C(Cl)Cl)[C@@H]1c3ccc(OC(=O)C(Cl)Cl)c(OC(=O)C(Cl)Cl)c3OC[C@]1(O)C2)C(Cl)Cl [HEM44 (B-34)]

solubility in a 10 mM stock solution [1]: insoluble in a 10 mM stock solution
Compound: CC(C)CC(=O)Oc1cc2c(cc1OC(=O)CC(C)C)[C@@H]1c3ccc(OC(=O)CC(C)C)c(OC(=O)CC(C)C)c3OC[C@]1(O)C2 [HEM46 (B-36)]

solubility in a 10 mM stock solution [1]: insoluble in a 10 mM stock solution
Compound: O=C(Oc1cc2c(cc1OC(=O)c1ccc(Cl)cc1)[C@@H]1c3ccc(OC(=O)c4ccc(Cl)cc4)c(OC(=O)c4ccc(Cl)cc4)c3OC[C@]1(OC(=O)c1ccc(Cl)cc1)C2)c1ccc(Cl)cc1 [HEM36 (B-26)]

Further lines, the compound ahead of its results:

Compound: O=C(CCN1C(=O)/C(=C/c2ccc(Cl)cc2)SC1=S)Oc1cc2c(cc1OC(=O)CCN1C(=O)/C(=C/c3ccc(Cl)cc3)SC1=S)[C@@H]1c3ccc(OC(=O)CCN4C(=O)/C(=C/c5ccc(Cl)cc5)SC4=S)c(OC(=O)CCN4C(=O)/C(=C/c5ccc(Cl)cc5)SC4=S)c3OC[C@]1(O)C2 [HEM11 (B-19)]
solubility in a 10 mM stock solution [1]: insoluble in a 10 mM stock solution

Compound: CCCC(=O)Oc1cc2c(cc1OC(=O)CCC)[C@@H]1c3ccc(OC(=O)CCC)c(OC(=O)CCC)c3OC[C@]1(O)C2 [HEM47 (B-37)]
selectivity and potency in cytotoxicity screen (UT-7 cells): Best results in terms of selectivity and potency
pIC50 ([2]; UT7, read-out: IC50 WT cell line): 4.83
pIC50 ([3]; UT7, read-out: IC50 mutant cell line): 4.91

Compound: COc1cc2c(cc1OC)C1c3ccc(OC)c(OC)c3OCC1(O)C2 (centres unmarked) [NSC7251 (A-5)]
cytotoxic selectivity for mutant vs wild-type cell lines (CALR mutant cell lines): compromise both potency and selectivity

Compound: CN1C(=O)/C(=C/c2ccc(C(=O)Oc3cc4c(cc3OC(=O)c3ccc(/C=C5\SC(=S)N(C)C5=O)cc3)[C@@H]3c5ccc(OC(=O)c6ccc(/C=C7\SC(=S)N(C)C7=O)cc6)c(OC(=O)c6ccc(/C=C7\SC(=S)N(C)C7=O)cc6)c5OC[C@]3(O)C4)cc2)SC1=S [HEM32 (B-22)]
selectivity and potency in cytotoxicity screen (UT-7 cells): Best results in terms of selectivity and potency
pIC50 [2, 4]: 4.73
pIC50 [3, 5]: 4.79

Compound: CC(C)C(=O)Oc1cc2c(cc1OC(=O)C(C)C)[C@@H]1c3ccc(OC(=O)C(C)C)c(OC(=O)C(C)C)c3OC[C@]1(O)C2 [HEM40 (B-30)]
selectivity and potency in cytotoxicity screen (UT-7 cells): Best results in terms of selectivity and potency
pIC50 [2, 4]: 4.84
pIC50 [3, 5]: 4.92

Compound: N#CC[C@H](C1CCCC1)n1cc(-c2ncnc3[nH]ccc23)cn1 [ruxolitinib, Ruxolitinib, reference compound]
cytotoxic selectivity for mutant vs wild-type cell lines (CALR mutant cell lines): mild selective effect
pIC50 (CALR mutant cell lines; 72 h): 6.71
IC50 reduction in the mutant cell lines compared to wild-type cells (CALR mutant cell lines; 72 h assay): about 2 fold
pIC50 (CALR wild-type cell line; read-out: IC50 in wild-type cells): 6.40

Compound: NC(=O)NO [Hydroxyurea, reference compound]
cytotoxic selectivity for mutant vs wild-type cell lines (CALR mutant cell lines): did not show any selective killing effect

Compound: CC(=O)Oc1cc2c(cc1OC(C)=O)[C@@H]1c3ccc(OC(C)=O)c(OC(C)=O)c3OC[C@]1(OC(C)=O)C2 [L-HEM1 (B-1)]
cytotoxic selectivity for mutant vs wild-type cell lines (CALR mutant cell lines): compromise both potency and selectivity

Compound: CC(C)(C)C(=O)Oc1cc2c(cc1OC(=O)C(C)(C)C)[C@@H]1c3ccc(OC(=O)C(C)(C)C)c(OC(=O)C(C)(C)C)c3OC[C@]1(O)C2 [HEM48 (B-38)]
selectivity and potency in cytotoxicity screen (Ba/F3 cells): Best results in terms of selectivity and potency

Compound: CCC(=O)Oc1cc2c(cc1OC(=O)CC)[C@@H]1c3ccc(OC(=O)CC)c(OC(=O)CC)c3OC[C@]1(O)C2 [HEM42 (B-32)]
selectivity and potency in cytotoxicity screen (UT-7 cells): Best results in terms of selectivity and potency
pIC50 [2, 4]: 4.58
pIC50 [3, 5]: 4.68

Compound: Oc1ccc2c(c1)OC[C@]1(O)Cc3cc(O)c(O)cc3[C@H]21 [Brazilin (A-2), Brazilin]
cytotoxic selectivity for mutant vs wild-type cell lines (CALR mutant cell lines): comparable cytotoxic selectivity
pIC50 (CALR mutant cell lines; 72 h): 5.72
pIC50 (CALR wild-type cell line; read-out: IC50 in wild-type cell line): 5.21

Reference: patent publication US12410185B2, “Compounds targeting mutant calreticulin” (MYELOPRO DIAGNOSTICS AND RESEARCH GmbH, priority 2018, dated 2025)
